In ChEMBL document CHEMBL3832761, “MMV Pathogen Box Bioactivity Data” (2017):

Experiments:
[1] = test system: HepG2; experiment: HepG2 CC50 (uM) Cytotoxicity; assay type: functional; conditions: Homo sapiens
[2] = test system: Dengue virus; experiment: AntiDengue activity HCI DV1/A549 IC50 (uM); assay type: functional, organism-based
[3] = test system: A549; experiment: A549 CC50 (uM) Cytotoxicity; assay type: functional; conditions: Homo sapiens
[4] = test system: Dengue virus; experiment: AntiDengue activity HCI DV4/A549 IC50 (uM); assay type: functional, organism-based
[5] = test system: Dengue virus; experiment: AntiDengue activity HCI DV2/Huh7 IC50 (uM); assay type: functional, organism-based; conditions: Huh-7
[6] = test system: Dengue virus; experiment: AntiDengue activity HCI DV2/A549 IC50 (uM); assay type: functional, organism-based
[7] = test system: Dengue virus; experiment: AntiDengue activity HCI DV3/A549 IC50 (uM); assay type: functional, organism-based
[8] = HUH7 CC50 (uM) Cytotoxicity; assay type: functional; conditions: Huh-7
[9] = AntiChikungunya activity HCI CHIKV/Huh7 IC50 (uM); assay type: functional, Chikungunya virus
[10] = test system: HepG2; experiment: Cytotoxicity data HepG2 CC20 (uM); assay type: functional
[11] = test system: Wolbachia; experiment: Anti-Wolbachia activity Reduction in Wolbachia infected cells at 10 uM (%); assay type: functional, cell-based; design: Activity: scale not given: the % may be the effect or the level left
[12] = test system: Onchocerca gutturosa; experiment: AntiOnchocerca activity O. gutturosa adult males: Motility reduction at 12.5 uM (%); assay type: functional; design: scale not given: the % may be the effect or the level left
[13] = test system: Brugia pahangi; experiment: AntiBrugia pahangi activity Average day 3 IC50 (uM); assay type: functional, organism-based; conditions: 72 h
[14] = test system: Onchocerca ochengi; experiment: AntiOnchocerca activity O. ochengi adult females: final mean inhibition motility at 10 uM on Day 7 (%); assay type: functional
[15] = test system: Brugia pahangi; experiment: AntiBrugia pahangi activity Average inhibition motility at 10 uM (%); assay type: functional
[16] = test system: Onchocerca ochengi; experiment: AntiOnchocerca activity O. ochengi adult males: final mean inhibition motility at 10 uM on Day 5 (%); assay type: functional
[17] = test system: Onchocerca volvulus; experiment: AntiOnchocerca activity O. volvulus L3 Molting assay: inhibition at 10 uM (%); assay type: functional
[18] = test system: Onchocerca lienalis; experiment: AntiOnchocerca activity O. lienalis microfilariae Motility reduction (%); assay type: functional; design: concentration or dose not given beside the values
[19] = test system: Onchocerca gutturosa; experiment: AntiOnchocerca activity O. gutturosa adult males: MTT reduction at 12.5 uM (%); assay type: functional; design: scale not given: the % may be the effect or the level left
[20] = HL60 CC50 (uM) Cytotoxicity; assay type: functional; conditions: HL-60
[21] = test system: Onchocerca volvulus; experiment: AntiOnchocerca activity O. volvulus L3 Molting assay: IC50 (uM); assay type: functional, organism-based
[22] = test system: Onchocerca gutturosa; experiment: AntiOnchocerca activity O. gutturosa adult males: EC50 (uM); assay type: functional, organism-based
[23] = test system: Toxoplasma gondii; experiment: AntiToxoplasma gondii activity data 2-day killing assay: inhibition at 10 uM (%) Experiment E; assay type: functional
[24] = test system: Toxoplasma gondii; experiment: AntiToxoplasma gondii activity data 2-day killing assay: inhibition at 10 uM (%) Experiment C; assay type: functional; conditions: 48 h
[25] = test system: Toxoplasma gondii; experiment: AntiToxoplasma gondii activity data 2-day killing assay: inhibition at 10 uM (%) Experiment D; assay type: functional
[26] = test system: Toxoplasma gondii; experiment: AntiToxoplasma gondii activity data Inhibition of plaque forming efficiency (%) Experiment A; assay type: functional; design: concentration or dose not given beside the values
[27] = test system: Toxoplasma gondii; experiment: AntiToxoplasma gondii activity data 2-day killing assay: IC50 (uM), Experiment G; assay type: functional, organism-based
[28] = test system: Toxoplasma gondii; experiment: AntiToxoplasma gondii activity data 2-day killing assay: IC50 (uM), Experiment F; assay type: functional, organism-based
[29] = test system: Toxoplasma gondii; experiment: AntiToxoplasma gondii activity data Inhibition of plaque forming efficiency (%) Experiment B; assay type: functional; design: concentration or dose not given beside the values

| SMILES | CC50 [1] | IC50 [2] | CC50 [3] | IC50 [4] | IC50 [5] | IC50 [6] | IC50 [7] | CC50 [8] | IC50 [9] | CC20 [10] | Activity [12] | Activity [18] | Activity [19] | CC50 [20] | also measured |
| --- | --- | --- | --- | --- | --- | --- | --- | --- | --- | --- | --- | --- | --- | --- | --- |
| CC(C)(C)C(=O)N(CCCCCCN1C[C@H](O)[C@@H](O)[C@H](O)[C@H]1CO)C1CCCCCC1 | > 50 µM | 0.07 µM | > 50 µM | 0.2 µM | 2 µM | 0.6 µM | 0.08 µM | > 50 µM | > 50 µM | – | – | – | – | – | – |
| COc1cccn2c(C(=O)N3CCCCC3)c(C(F)(F)F)nc12 | – | – | – | – | – | – | – | – | – | >80 µM | – | – | – | – | IC50 ([11]; Wolbachia): 0.5 µM |
| COC(=O)c1ccc(F)cc1NS(=O)(=O)c1cccc(-c2cnn(Cc3ccccc3)c2)c1 | 10 µM | 5 µM | > 50 µM | > 50 µM | 10 µM | 6 µM | > 50 µM | 20 µM | 10 µM | – | – | – | – | – | – |
| O=C1[C@@H](Oc2ccccc2)[C@@H](c2ccc(Cl)cc2)N1CCn1cnc2c(NCc3ccccc3)ncnc21 | 3 µM | 3 µM | 40 µM | 2 µM | 3 µM | 6 µM | 4 µM | 10 µM | 6 µM | – | – | – | – | – | – |
| O=C(Nc1nnc(S)s1)c1cc(Br)ccc1Cl | – | – | – | – | – | – | – | – | – | >80 µM | 29% | 27% | 0% | > 50 µM | IC50 [13]: 9.4 µM; Inhibition [14]: 4%; Inhibition [15]: 69%; Inhibition [16]: 0%; Inhibition [17]: 36% |
| CC(=O)N(CCN(C(=O)c1ccc(F)cc1)c1ccccc1)c1ccccc1 | – | – | – | – | – | – | – | – | – | 39 µM | 42.9% | 13.3% | 0% | > 50 µM | Inhibition [14]: 4%; Inhibition [15]: 4%; IC50 [21]: 3.13 µM; Inhibition [16]: 0%; Inhibition [17]: 100% |
| CC(C)(C)OC(=O)N1CCN(c2nccc(-c3ccc(-c4ccc(Cl)cc4)s3)n2)CC1 | > 50 µM | 7 µM | > 50 µM | 3 µM | > 50 µM | 7 µM | 2 µM | > 50 µM | 10 µM | – | – | – | – | – | – |
| Oc1c(I)cc(I)c2cccnc12 [IODOQUINOL] | – | – | – | – | – | – | – | – | – | 2.53 µM | 100% | 93.3% | 88% | – | EC50 [22]: 0.46 µM |
| COC(=O)C1=C(C)NC(C)=C(C(=O)OC(C)C)C1c1cccc2nonc12 (stereo not given) [ISRADIPINE] | – | – | – | – | – | – | – | – | – | 66 µM | 100% | 53% | 79% | – | EC50 [22]: 0.89 µM |
| CCc1nc2ccc(C(=O)NCc3ccc4c(c3)OCO4)cn2c1N(C)Cc1cccs1 | – | – | – | – | – | – | – | – | – | 18.6 µM | – | – | – | – | Activity [11]: 45% |
| CCS(=O)(=O)N(Cc1ccco1)Cc1cc2ccc(C)cc2nc1O | – | – | – | – | – | – | – | – | – | >80 µM | – | – | – | – | Activity [11]: 52% |
| CCCCc1ccc(NC(=O)Nc2ccc(O[C@H]3CCCC[C@@H]3N(C)c3ccccc3)c(F)c2)cc1 | – | – | – | – | – | – | – | – | – | 5.77 µM | 14.3% | 33.3% | 0% | > 6.2 µM | IC50 [13]: 8.4 µM; Inhibition [14]: 57%; Inhibition [15]: 61%; IC50 [21]: 1.09 µM; Inhibition [16]: 61%; Inhibition [17]: 100% |
| COc1ccc(N(CCc2cccc(C)n2)C(=O)C2CCCCC2)cc1 | – | – | – | – | – | – | – | – | – | >80 µM | 42.9% | 13% | 35.7% | > 50 µM | Inhibition [14]: 4%; Inhibition [15]: 11%; IC50 [21]: 1.34 µM; Inhibition [16]: 7%; Inhibition [17]: 100% |
| OC[C@H]1O[C@@H](n2c3ccc(Cl)cc3c3c(-c4cc5ccccc5o4)ncnc32)C(O)[C@H]1O (stereo not given in full) | 10 µM | 5 µM | > 50 µM | 3 µM | > 50 µM | 7 µM | 3 µM | 1 µM | > 50 µM | – | – | – | – | – | – |
| CC(Oc1cccc(Cl)c1)C(=O)Nc1ccc2oc(-c3ccncc3)nc2c1 (stereo not given) | – | – | – | – | – | – | – | – | – | – | – | – | – | > 25 µM | Inhibition [23]: 81.6%; inhibition at 10 µM [24]: 0%; Inhibition [25]: 85.4%; Inhibition [26]: 100%; IC50 [27]: no inhibition; IC50 [28]: no inhibition; Inhibition [29]: 100% |
